The values that follow come from paper PMC8586704 (Frontiers in Chemistry, 2021).

For one assay, the system named is M. tuberculosis H37Rv. In words: Antitubercular activity assay, broth dilution, auto-luminescent strain. It is filed as cell-based, Mycobacterium tuberculosis. For orientation: Dilution methods test growth across graded concentrations, often in twofold steps.
The next assay relates to MCF-7. In words: cells. It is filed as cell-based. As to conditions: Homo sapiens, MCF7; breast adenocarcinoma cell line.
For a further assay, the system named is HeLa. In words: cells. It is filed as cell-based. As to conditions: Homo sapiens, cervical carcinoma cell line.
Another assay relates to HepG2. Briefly: cells. Type of assay: cell-based. Particulars: Homo sapiens, hepatocellular carcinoma cell line.
The next assay relates to A549. Briefly: Cytotoxicity assay (CCK-8). Type of assay: cell-based. Particulars: Homo sapiens, lung cancer cell line.
The subject of the next assay is HCT116. In words: cells. It is filed as cell-based. Particulars: Homo sapiens, HCT-116; colon cancer cell line.
In another assay the test system is L02. Briefly: cells. It is filed as cell-based. As to conditions: normal human hepatic cell line.
For another assay, the system named is Huvec-12. In words: Cytotoxicity assay (CCK-8). It is filed as cell-based. As to conditions: normal human umbilical vein endothelial cell line.
The mark [1] stands for this setting: Mycobacterium tuberculosis, H37RV, Day 3rd, read-out: MICs against H37Rv, Day 3rd.
Where [2] appears, read: Mycobacterium tuberculosis, H37RV, Day 7th, read-out: MICs against H37Rv, Day 7th.
Setting [3] is: Mycobacterium tuberculosis, H37RV, Day 14th, read-out: MICs against H37Rv, Day 14th.

In brackets after ≈: the same amount, converted by molar mass. Where two headings read alike, the source gives them in different places. Starred links: 1 amine or outer side, 2 acyl side, 3 side chain; linkers in the order of their positions; H or OH if unused. Non-standard residues stand in square brackets, D forms with d. Residues, ends and D or L forms follow the SMILES beside them. Groups on a side chain read outwards from the residue. Trp(1-(1,1-Me2-allyl)) = C=CC(C)(C)n1cc(C[C@H](N)C(=O)O)c2ccccc21; X5 = O=C(Oc1ccc(C[C@H](N[*:1])C(=O)[*:2])cc1[N+](=O)[O-])c1cnccn1; NMeGlu(4S-Me) = C[C@@H](C[C@@H](C(=O)[*:2])N(C)[*:1])C(=O)[*:3]; X1 = C[C@@H](C[C@@H](C(=O)[*:2])N(C)[*:1])C(=O)NCc1ccc(F)cc1; X12 = C[C@@H](C[C@@H](C(=O)[*:2])N(C)[*:1])C(=O)NCc1ccccc1; Tyr(3-NO2) = N[C@@H](Cc1ccc(O)c([N+](=O)[O-])c1)C(=O)O; Gly(E-crotyl) = C/C=C/C[C@H](N)C(=O)O; NMeL = CN[C@@H](CC(C)C)C(=O)O Bounds are passed on as bounds.

With `C=CC(C)(C)n1cc(C[C@@H]2NC(=O)[C@H](C/C=C/C)NC(=O)[C@H](CC(C)C)NC(=O)[C@H](C[C@H](C)C(=O)NCc3ccc(F)cc3)N(C)C(=O)[C@H](C)NC(=O)[C@H](Cc3ccc(O)c([N+](=O)[O-])c3)NC(=O)[C@H](CC(C)C)N(C)C2=O)c2ccccc21` [Compound 10, ilamycin NJL10] (cyclo(A[X1]L[Gly(E-crotyl)][Trp(1-(1,1-Me2-allyl))][NMeL][Tyr(3-NO2)])), the “increase of anti-TB activity compared with ilamycin F” value with M. tuberculosis H37Rv (Day 3rd) is recorded as 9–19 fold. Moreover, the MIC was 1.7 µM (≈ 1.95 µg/mL) in the assay with M. tuberculosis H37Rv (Day 3rd, read-out: MICs against H37Rv, Day 3rd); 1.7 µM (≈ 1.95 µg/mL) in the assay on M. tuberculosis H37Rv (Day 14th, read-out: MICs against H37Rv, Day 14th); 1.6 to 3.5 µM (≈ 1.84 to 4.02 µg/mL) in the assay on M. tuberculosis H37Rv (setting [1]); 1.7 µM (≈ 1.95 µg/mL) with M. tuberculosis H37Rv (setting [2]); 1.6 to 1.7 µM (≈ 1.84 to 1.95 µg/mL) in the assay with M. tuberculosis H37Rv (setting [3]). The “more potent MIC value than that of 9 and 11” value with M. tuberculosis H37Rv (Day 14th) was 2 fold. In addition, the IC50 in the assay on MCF-7, in the assay with HeLa, with HepG2, in the assay on A549, in the assay with HCT116 and in the assay with L02 was over 50 µM throughout. Moreover, the 50% inhibitory concentration (IC50) (usually the point on the concentration scale where inhibition reaches its midpoint) in the assay on Huvec-12 was over 50 µM.
In the case of `C=CC(C)(C)n1cc(C[C@@H]2NC(=O)[C@H](C/C=C/C)NC(=O)[C@H](CC(C)C)NC(=O)[C@H](C[C@H](C)C(=O)N[C@@H](CCCNC(=N)N)C(=O)OC)N(C)C(=O)[C@H](C)NC(=O)[C@H](Cc3ccc(O)c([N+](=O)[O-])c3)NC(=O)[C@H](CC(C)C)N(C)C2=O)c2ccccc21` [Compound 4, ilamycin NJL4] (cyclo(A[NMeGlu(4S-Me)]([Arg-OMe])L[Gly(E-crotyl)][Trp(1-(1,1-Me2-allyl))][NMeL][Tyr(3-NO2)])), the MIC in the assay on M. tuberculosis H37Rv (setting [1]), with M. tuberculosis H37Rv (setting [2]) and with M. tuberculosis H37Rv (setting [3]) was 26.4 µM (≈ 32 µg/mL) throughout. In addition, the half-maximal inhibitory concentration (IC50) was over 50 µM in the assay on MCF-7; 26 µM in the assay with HeLa; over 50 µM with HepG2; 23 µM in the assay with A549; 30.6 µM with HCT116; 25.9 µM in the assay on L02. The IC50 in the assay with Huvec-12 is 35.2 µM.
Consider `C=CC(C)(C)n1cc(C[C@@H]2NC(=O)[C@H](C/C=C/C)NC(=O)[C@H](CC(C)C)NC(=O)[C@H](C[C@H](C)C(=O)O)N(C)C(=O)[C@H](C)NC(=O)[C@H](Cc3ccc(OC(=O)c4cnccn4)c([N+](=O)[O-])c3)NC(=O)[C@H](CC(C)C)N(C)C2=O)c2ccccc21` [Compound 15, ilamycin NJL15] (cyclo(A[NMeGlu(4S-Me)]L[Gly(E-crotyl)][Trp(1-(1,1-Me2-allyl))][NMeL][X5])), for which the MIC with M. tuberculosis H37Rv (setting [1]), in the assay with M. tuberculosis H37Rv (setting [2]) and with M. tuberculosis H37Rv (setting [3]) was 27.9 µM (≈ 32 µg/mL) throughout. The concentration for half-maximal inhibition (IC50) with MCF-7, with HeLa, in the assay on HepG2, in the assay on A549, with HCT116 and with L02 was over 50 µM each time. In addition, the IC50 in the assay with Huvec-12 is over 50 µM.
Turning to `C=CC(C)(C)n1cc(C[C@@H]2NC(=O)[C@H](C/C=C/C)NC(=O)[C@H](CC(C)C)NC(=O)[C@H](C[C@H](C)C(=O)NCc3ccccc3)N(C)C(=O)[C@H](C)NC(=O)[C@H](Cc3ccc(O)c([N+](=O)[O-])c3)NC(=O)[C@H](CC(C)C)N(C)C2=O)c2ccccc21` [Compound 9, ilamycin NJL9] (cyclo(A[X12]L[Gly(E-crotyl)][Trp(1-(1,1-Me2-allyl))][NMeL][Tyr(3-NO2)])), the MIC in the assay with M. tuberculosis H37Rv (setting [1]), with M. tuberculosis H37Rv (setting [2]) and with M. tuberculosis H37Rv (setting [3]) was 3.5 µM (≈ 3.96 µg/mL) throughout. In addition, the IC50 in the assay on MCF-7, in the assay with HeLa, with HepG2, in the assay on A549, in the assay with HCT116 and with L02 was over 50 µM in each case. This compound had a concentration for half-maximal inhibition (IC50) in the assay with Huvec-12 of over 50 µM.
